Assay results from US12697337B2, “Solid dispersions” (InventisBio Co., Ltd., priority 2021, dated 2026).

Columns and labels:
[1] = Dynamic moisture sorption analysis (DVS); assay type: physicochemical
Experimental: Dynamic Moisture Sorption Analysis (DVS)
Small scale up of Form B: Form B was small scaled up for DVS analysis, solubility and stability studies. 103.02 mg of Compound 1 in Form A was dissolved in 5 mL of MeOH (48V) at RT. After filtration, 10 mL of water was added into the filtrate. Precipitation occurred quickly. The suspension was kept stirring at RT for about 2 hours. Solid samples were collected by filtration, dried under vacuum at 50° C. overnight. 94.16 mg solid was obtained with a yield of 91%. This solid was used for the DVS testing.

[2] = Solid state stability of Form B; assay type: physicochemical; conditions: for Purity-7 d (Area %): open, 7 days
Experimental: Solid State Stability of Form B: About 10 mg of Form B was open placed at 40° C./75% RH and 60° C. for 7 days and at 25° C./92.5% RH for 10 days, respectively. Prepare samples in duplicate (n =2) per condition. The solids were analyzed by XRPD and HPLC (only for 40° C./75% RH and 60° C.).

[3] = 1-week stability evaluation of SDD; assay type: physicochemical; conditions: for Appearance / Purity (%) / XRPD: 1 week; for Initial purity (%): before storage
Experimental: A brief description of the methods used for PLM, XRPD, Purity and mDSC analysis of the above SDD samples is shown below. • PLM analysis of the SDD samples were conducted using Nikon LV100POL equipped with 5 megapixel CCD, with the physical lens set at 20×. • For XRPD analysis, samples were spread onto the Si-substrate for XRPD test using the parameters as below: Tube: Cu: K-Alpha (λ=1.5418 Å); Generator: Voltage: 40 kV; Current: 40 mA; Scan Scope: 2 or 3 to 40 deg; Time/step(s) 0.06 s; Total time(s) 120 s or 117.36 s. • For mDSC analysis, SDD powders were weighed into Tzero aluminum sample pan from TA Instruments covered by pinhole lid for mDSC test using the parameters as below: Start temperature at 30° C.; Modulate +/−1° C. every 60 seconds; Ramp 2° C./min to 300° C. • The UPLC method used for the assay and purity analysis above is UPLC Method 1, which is shown below:
Appropriate quantity of SDDs and crystalline Compound 1 (Form B) were placed into 40-mL vials respectively.
The samples (closed) were covered by plastic cap tightly and sealed by parafilm and samples (open) were just covered by aluminum foil with pinholes. Then they were stored at 2-8° C., 25° C./60% RH and 40° C./75% RH stability chamber respectively for 1 week. The samples were analyzed by XRPD to check the physical stability, and meanwhile dissolved with diluent for UPLC analysis (UPLC Method 1) to check the chemical stability.

[4] = Dissolution evaluation in FaSSIF medium; assay type: physicochemical
Experimental: Dissolution evaluation in FaSSIF medium: To evaluate in-vitro release performance of SDDs, dissolution in FaSSIF (pH=6.5±0.05) was performed, and the crystalline Compound 1 (Form B) was also tested as control.
Appropriate amount of Compound 1 or SDD (SDD-0 to SDD-8) was weighed into 40-mL glass vials respectively, and then added 10 mL of FaSSIF medium to a target API concentration of 1 mg/mL, followed by hand shake to suspend well. Place the glass bottle on 37° C. hot-stage by stirring magnetically at 200 rpm. At each time point of 10 min, 20 min, 40 min, 60 min and 120 min, 500 μL suspension was pipetted respectively and centrifuged (14,000 rpm, 3 min) to isolate supernatant and dilute with diluent for UPLC analysis. Finally, the pH value of solution (120 min) were measured by pH meter.
The UPLC method used for the dissolution analysis above is UPLC Method 2, which is shown below: […]

[5] = PCT/CN2020/137276 and PCT/CN2019/126230; cited from earlier work
KRAS G12C = KRAS G12C (Homo sapiens, UniProt P01116, G12C); conditions: as described in previous applications; cited from earlier work
various cancers = conditions: as described in previous applications; cited from earlier work
[6] = pKa measurement of Compound 1; assay type: physicochemical; conditions: measured pKa; free base
Description: Compound 1 has a measured pKa of around 1 and typically exists in a free base form. Unless otherwise explicitly stated to the contrary, Compound 1 herein should be understood as existing in its free base form as opposed to a salt formed with an acid or base. The synthesis and utility of Compound 1 has been described in Applicant's previous applications, such as International Application Nos. PCT/CN2020/091274, filed May 20, 2020, published as WO2020/233592, PCT/CN2020/137276, filed Dec. 17, 2020, and PCT/CN2019/126230, filed Dec. 18, 2019, the contents of each of which are herein incorporated by reference in their entireties. […] PCT/CN2020/137276 and PCT/CN2019/126230 also describe various isolated forms, substantially pure forms, and/or solid forms of Compound 1 and their preparation methods.

[7] = Table 6, FaSSIF (10 mL) pH 6.5, 37° C., target API 1 mg/mL
[8] = Table 11, FaSSIF (10 mL) pH 6.5

KRAS G12C, sequence (P01116 1-188 isoform P01116-2 G12C): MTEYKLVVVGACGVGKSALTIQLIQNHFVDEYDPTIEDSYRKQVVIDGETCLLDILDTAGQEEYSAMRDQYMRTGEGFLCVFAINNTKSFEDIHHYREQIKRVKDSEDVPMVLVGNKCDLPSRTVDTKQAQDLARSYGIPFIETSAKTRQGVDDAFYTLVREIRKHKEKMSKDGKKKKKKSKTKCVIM

## C=CC(=O)N1C[C@H](C)N(c2nc(=O)n(-c3c(C4CC4)ncnc3C3CC3)c3nc(-c4c(N)cccc4F)c(F)cc23)C[C@H]1C [Compound 1 (Form B)]
[1]; 0-80% RH, 25° C.
  water absorbed (DVS): ~ 0.84%
[1]; XRPD after DVS
  crystal form after DVS testing: without changing of crystal form
[2]; 25° C./92.5% RH, after 10 d
  XRPD: Unchanged
[2]; 40° C./75% RH for 7 days
  chemical stability: chemically stable
[2]; 40° C./75% RH, after 7 d
  XRPD: Unchanged
[2]; 40° C./75% RH
  Purity-7 d (Area %): 98.97 Area %
[2]; 60° C. for 7 days
  purity decrease: 0.16%
[2]; 60° C., after 7 d
  XRPD: Unchanged
[2]; 60° C.
  Purity-7 d (Area %): 98.82 Area %
[2]; at test conditions (40° C./75% RH, 60° C., 25° C./92.5% RH)
  physical stability: physically stable
[2]; before storage
  Initial Purity (Area %): 98.98 Area %
[3]; Table 8, 2-8° C., closed
  Appearance: Yellow powder
  Purity (%): 98.81%
  XRPD: Crystal
[3]; Table 8, 25° C./60% RH, open
  Appearance: Yellow powder
  Purity (%): 98.86%
  XRPD: Crystal
[3]; Table 8, 40° C./75% RH, open
  Appearance: Yellow powder
  Purity (%): 98.79%
  XRPD: Crystal
[3]; Table 8
  Initial purity (%): 98.75%
[3]; Table 12, 2-8° C., closed
  Appearance: Yellow powder
  Purity (%): 98.81%
  XRPD: Crystal
[3]; Table 12, 25° C./60% RH, open
  Appearance: Yellow powder
  Purity (%): 98.86%
  XRPD: Crystal
[3]; Table 12, 40° C./75% RH, open
  Appearance: Yellow powder
  Purity (%): 98.79%
  XRPD: Crystal
[3]; Table 12
  Initial purity (%): 98.75%
[4]; [7]
  API concentration in dissolution medium, 10 min: 12.5 µg/mL
  API concentration in dissolution medium, 20 min: 13.8 µg/mL
  API concentration in dissolution medium, 40 min: 15.0 µg/mL
  API concentration in dissolution medium, 60 min: 15.5 µg/mL
  API concentration in dissolution medium, 120 min: 15.9 µg/mL
[4]; Table 6, pH value of solution at 120 min of FaSSIF dissolution
  pH: 6.42
[4]; [8]
  API concentration in dissolution medium, 10 min: 10.8 µg/mL
  API concentration in dissolution medium, 20 min: 12.5 µg/mL
  API concentration in dissolution medium, 40 min: 14.3 µg/mL
  API concentration in dissolution medium, 60 min: 14.2 µg/mL
  API concentration in dissolution medium, 120 min: 14.9 µg/mL
[4]; Table 11, pH of solution after FaSSIF dissolution
  pH: 6.41
[4]; Table 15, FaSSIF (10 mL)
  API concentration in dissolution medium, 10 min: 8.1 µg/mL
  API concentration in dissolution medium, 20 min: 8.4 µg/mL
  API concentration in dissolution medium, 40 min: 9.0 µg/mL
  API concentration in dissolution medium, 60 min: 9.1 µg/mL
  API concentration in dissolution medium, 120 min: 9.7 µg/mL
[4]; Table 15, pH of solution after FaSSIF dissolution
  pH: 6.48
[5]
  relative stability among crystalline Forms A, B, C, D: more stable crystalline form

## C=CC(=O)N1C[C@H](C)N(c2nc(=O)n(-c3c(C4CC4)ncnc3C3CC3)c3nc(-c4c(N)cccc4F)c(F)cc23)C[C@H]1C [Compound 1]
KRAS G12C
  KRAS G12C inhibition: potent KRAS G12C inhibitor
Various cancers
  efficacy in in vivo mouse models: effective in treating various cancers
[6]
  pKa: ~1
